The values below come from patent publication US5045566A, “Novel imidate insecticides” (ICI Americas Inc., priority 1989, dated 1991).

Bounds are passed on as bounds.

Holding throughout (type): in vivo
Test [1] concerns Cabbage Looper [Trichoplusia ni (Hubner)]. Nature of the test: Cabbage looper leaf dip (CL), 3-5 days. The conditions noted are these: percent in solution, second-instar larvae. An outline of the steps: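 LC50, as percent test compound in solution, derived from dosage-mortality curves; concentrations started at 0.1% and went lower. Five second-instar larvae per dish fed on acetone-water-dipped, dried squash cotyledons in a humid chamber. Deaths recorded 3-5 days post-infestation.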

Test [2] concerns Maize weevil [Sitophilus zeamais (Motschulsky)]. Kind of test: Maize weevil on dipped corn seeds (MW), 48 hours. The conditions noted are these: percent in solution, adult weevils. As to the method: The compounds in Tables 1 and 2 above were tested for insecticidal activity using the following testing procedures. LC50 values, based on the results of these tests and calculated according to dosage-mortality curves, are expressed in Table 3.
Maize weevil [Sitophilus zeamais (Motschulsky)]:
Test compounds were diluted in a 50:50 acetone:water solution. Four corn seeds [Zea mays (L.)] which had been immersed in test solutions for 2-3 seconds and allowed to dry were placed in containers together with 10 adult weevils. The containers were covered and kept at a temperature of about 25° C. Mortality was recorded after 48 hours. Test concentrations ranged from 0.01% down to that at which 50% mortality occurred. The LC50 values are expressed below in Table 3 under the heading "MW" in terms of percent of the test compound in solution.

Test [3] deals with Housefly [Musca domestica]. Kind of test: Housefly contact mortality in dishes (HF), 48 hours. The conditions noted are these: μg of test compound per 25 female flies. Put shortly:
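LC50 (μg compound per 25 female flies) derives from dosage-mortality curves of 48 h kill. Flies, females 1-2 days old, were held 25 per cage over a dish coated with dried acetone deposit, starting at 100 μg per cage and descending.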

Test [4] concerns Tobacco Budworm [Heliothis virescens (Fabricius)] eggs. Nature of the test: Tobacco budworm eggs (TBW-E). The conditions noted are these: percent in solution; 2-day old eggs. Put shortly:
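LC50 is given as percent compound in the dipping solution, fitted from dosage-mortality curves. Two-day-old eggs on paper towel were dipped in acetone solutions (top concentration 0.1%), kept at 78° F on rearing medium, and scored after control hatch and larval feeding.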

Regarding `Fc1ccc(Oc2cccc(COC(=Nc3ccc(F)c(Cl)c3)C3CC3)c2)cc1` [Compound 116], in test [1], the “LC50 CL” value turned out to be 0.00025%. In test [2], the “LC50 MW” value was more than 0.01%. The “LC50 HF” value in test [3] was 15 µg.

For the compound `CC(C)C(=Nc1cc(F)c(Cl)cc1Cl)OCc1ccc(F)c(Oc2ccc(F)cc2)c1` [Compound 292], the “LC50 CL” value in test [1] was determined as 0.00075%. Further, in test [4], the “LC50 TBW E (eggs)” value stood at 0.05%. The “LC50 MW” value in test [2] is more than 0.01%. Besides, the “LC50 HF” value in test [3] came to 41 µg.

In the case of `Fc1ccc(Oc2cccc(COC(=Nc3cccc(C(F)(F)F)c3)C3CC3)c2)cc1` [Compound 294], the “LC50 CL” value in test [1] is reported as 0.017%. Further, in test [4], the “LC50 TBW E (eggs)” value is more than 0.1%. In addition, the “LC50 MW” value in test [2] was more than 0.01%. In test [3], the “LC50 HF” value was more than 100 µg.

As for `CC(C)C(=Nc1ccc(F)c(Br)c1)OCc1ccc(F)c(Oc2ccccc2)c1` [Compound 299], the “LC50 CL” value in test [1] is listed as 0.0005%. For the same compound, the “LC50 TBW E (eggs)” value in test [4] is 0.017%. In addition, in test [2], the “LC50 MW” value was more than 0.01%. In addition, in test [3], the “LC50 HF” value was 8 µg.

In the case of `CC(C)C(=Nc1ccc(C(C)(C)C)cc1)OCc1ccc(F)c(Oc2ccc(Cl)cc2)c1` [Compound 301], in test [1], the “LC50 CL” value was determined as 0.008%. In test [4], the “LC50 TBW E (eggs)” value was more than 0.1%. In test [2], the “LC50 MW” value is more than 0.01%. In addition, the “LC50 HF” value in test [3] was more than 100 µg.

In the case of `CC(C)C(=Nc1cccc([N+](=O)[O-])c1)OCc1cccc(Oc2ccccc2)c1` [Compound 302], the “LC50 CL” value in test [1] was found to be 0.003%. Moreover, the “LC50 TBW E (eggs)” value in test [4] is recorded as more than 0.1%. The “LC50 MW” value in test [2] was more than 0.01%. Also, the “LC50 HF” value in test [3] was found to be 15 µg.

On to `CC(C)C(=Nc1c(F)c(F)cc(F)c1F)OCc1cccc(Oc2ccc(F)cc2)c1` [Compound 304], for which the “LC50 CL” value in test [1] is 0.0024%. Besides, in test [4], the “LC50 TBW E (eggs)” value is more than 0.1%. The “LC50 MW” value in test [2] was more than 0.01%. In addition, the “LC50 HF” value in test [3] is more than 100 µg.

Regarding `CC(Br)C(=Nc1ccc2c(c1)OCO2)OCc1cccc(Oc2ccccc2)c1` (stereo not shown) [Compound 306], the “LC50 CL” value in test [1] was found to be 0.005%. Moreover, in test [4], the “LC50 TBW E (eggs)” value worked out at 0.1%. Further, the “LC50 MW” value in test [2] is on record as more than 0.01%. Further, the “LC50 HF” value in test [3] was more than 100 µg.

Take `CC(C)C(=Nc1ccc([N+](=O)[O-])c(C(F)(F)F)c1)OCc1cccc(Oc2ccccc2)c1` [Compound 307]: the “LC50 CL” value in test [1] stood at 0.002%. For the same compound, the “LC50 TBW E (eggs)” value in test [4] is given as 0.08%. Also, in test [2], the “LC50 MW” value is on record as more than 0.01%. In addition, the “LC50 HF” value in test [3] is more than 100 µg.

Regarding `CC(C)C(=Nc1ccc(F)c(I)c1)OCc1cccc(Oc2ccc(F)cc2)c1` [Compound 449], in test [1], the “LC50 CL” value was 0.0001%. Also, the “LC50 TBW E (eggs)” value in test [4] came to 0.025%. The “LC50 MW” value in test [2] was determined as 0.0075%. Also, the “LC50 HF” value in test [3] came out at 13 µg.

For `CC(C)C(=Nc1cccc(C(F)(F)F)c1)OCc1cccc(Oc2ccc(Cl)cc2)n1` [Compound 477], the “LC50 CL” value in test [1] is 0.0003%. Besides, in test [4], the “LC50 TBW E (eggs)” value is more than 0.1%. Further, the “LC50 MW” value in test [2] came out at 0.0076%. Moreover, the “LC50 HF” value in test [3] worked out at 20 µg.

On to `CC(C)C(=Nc1ccc(Br)cc1)OCc1coc(Cc2ccccc2)c1` [Compound 478], for which the “LC50 CL” value in test [1] was found to be 0.0037%. The “LC50 TBW E (eggs)” value in test [4] is on record as more than 0.1%. Further, the “LC50 MW” value in test [2] was more than 0.01%. Moreover, the “LC50 HF” value in test [3] worked out at 15 µg.

Take `CC(C)C(=Nc1cccc(C(F)(F)F)c1)OCc1coc(Cc2ccccc2)c1` [Compound 482]: the “LC50 CL” value in test [1] is on record as 0.01%. For the same compound, the “LC50 TBW E (eggs)” value in test [4] is recorded as more than 0.1%. Also, the “LC50 MW” value in test [2] is more than 0.01%. Also, the “LC50 HF” value in test [3] was found to be 36 µg.

`CC(C)C(=Nc1ccc2c(c1)OCO2)OCc1coc(Cc2ccccc2)c1` [Compound 483]: the “LC50 CL” value in test [1] is reported as 0.001%. The “LC50 TBW E (eggs)” value in test [4] was 0.05%. In test [2], the “LC50 MW” value is given as more than 0.01%. For the same compound, the “LC50 HF” value in test [3] worked out at 6 µg.
